Measured values: ChEMBL document CHEMBL5512640, “Discovery of novel itaconimide-based derivatives as potent HDAC inhibitors for the efficient treatment of prostate cancer” (Eur J Med Chem, 2024)
Activity calls are given as the source filed them. The rule behind the calls is not given here.

Columns and labels:
PC-3 = assay: Antiproliferative activity against human PC-3 cells incubated for 96 hrs by MTT assay; assay type: functional, cell-based; conditions: PC-3, 96 h
NCI-H446 = assay: Antiproliferative activity against human NCI-H446 cells incubated for 96 hrs by MTT assay; assay type: functional, cell-based; conditions: NCI-H446, 96 h
NCI-H1650 = assay: Antiproliferative activity against human NCI-H1650 cells incubated for 96 hrs by MTT assay; assay type: functional, cell-based; conditions: NCI-H1650, 96 h
MCF7 = assay: Antiproliferative activity against human MCF7 cells incubated for 96 hrs by MTT assay; assay type: functional, cell-based; conditions: MCF7, 96 h
HCT-116 = assay: Antiproliferative activity against human HCT-116 cells incubated for 96 hrs by MTT assay; assay type: functional, cell-based; conditions: HCT-116, 96 h
HT-29 = assay: Antiproliferative activity against human HT-29 cells incubated for 96 hrs by MTT assay; assay type: functional, cell-based; conditions: HT-29, 96 h
Histone deacetylase 2 = Histone deacetylase 2 (Homo sapiens, UniProt Q92769); assay: Inhibition of human HDAC2 incubated for 10 mins followed by fluorogenic substrate addition by fluorescence based analysis
Sequence of Histone deacetylase 2 (Q92769 whole entry): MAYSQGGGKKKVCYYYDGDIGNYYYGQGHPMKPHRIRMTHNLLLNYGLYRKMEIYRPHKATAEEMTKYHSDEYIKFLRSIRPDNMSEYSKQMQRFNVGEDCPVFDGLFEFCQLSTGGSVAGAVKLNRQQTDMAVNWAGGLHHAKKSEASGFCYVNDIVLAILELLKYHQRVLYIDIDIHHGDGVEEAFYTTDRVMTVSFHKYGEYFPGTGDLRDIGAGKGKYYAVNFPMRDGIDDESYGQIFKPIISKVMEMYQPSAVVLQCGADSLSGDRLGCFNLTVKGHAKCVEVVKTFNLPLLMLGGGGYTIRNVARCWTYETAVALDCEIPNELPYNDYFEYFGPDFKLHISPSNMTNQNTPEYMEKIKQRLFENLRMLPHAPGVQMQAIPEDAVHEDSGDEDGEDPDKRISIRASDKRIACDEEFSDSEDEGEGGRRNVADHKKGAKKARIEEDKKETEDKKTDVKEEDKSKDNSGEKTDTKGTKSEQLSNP

Histone deacetylase 3 = Histone deacetylase 3 (Homo sapiens, UniProt O15379); assay: Inhibition of human HDAC3 incubated for 10 mins followed by fluorogenic substrate addition by fluorescence based analysis
Sequence of Histone deacetylase 3 (O15379 whole entry): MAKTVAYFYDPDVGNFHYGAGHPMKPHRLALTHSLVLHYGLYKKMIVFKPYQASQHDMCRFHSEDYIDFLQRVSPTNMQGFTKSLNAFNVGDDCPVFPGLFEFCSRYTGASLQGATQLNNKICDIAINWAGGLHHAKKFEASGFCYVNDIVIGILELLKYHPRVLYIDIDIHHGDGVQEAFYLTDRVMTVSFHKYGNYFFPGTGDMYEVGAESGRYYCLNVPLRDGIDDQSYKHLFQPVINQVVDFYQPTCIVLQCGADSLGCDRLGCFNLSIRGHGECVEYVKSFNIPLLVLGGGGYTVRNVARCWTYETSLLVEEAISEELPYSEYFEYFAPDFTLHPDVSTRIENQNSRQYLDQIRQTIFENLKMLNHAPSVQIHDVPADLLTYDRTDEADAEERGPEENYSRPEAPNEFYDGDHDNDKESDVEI

Histone deacetylase 5 = Histone deacetylase 5 (Homo sapiens, UniProt Q9UQL6); assay: Inhibition of human HDAC5 incubated for 10 mins followed by fluorogenic substrate addition by fluorescence based analysis
Sequence of Histone deacetylase 5 (Q9UQL6 whole entry): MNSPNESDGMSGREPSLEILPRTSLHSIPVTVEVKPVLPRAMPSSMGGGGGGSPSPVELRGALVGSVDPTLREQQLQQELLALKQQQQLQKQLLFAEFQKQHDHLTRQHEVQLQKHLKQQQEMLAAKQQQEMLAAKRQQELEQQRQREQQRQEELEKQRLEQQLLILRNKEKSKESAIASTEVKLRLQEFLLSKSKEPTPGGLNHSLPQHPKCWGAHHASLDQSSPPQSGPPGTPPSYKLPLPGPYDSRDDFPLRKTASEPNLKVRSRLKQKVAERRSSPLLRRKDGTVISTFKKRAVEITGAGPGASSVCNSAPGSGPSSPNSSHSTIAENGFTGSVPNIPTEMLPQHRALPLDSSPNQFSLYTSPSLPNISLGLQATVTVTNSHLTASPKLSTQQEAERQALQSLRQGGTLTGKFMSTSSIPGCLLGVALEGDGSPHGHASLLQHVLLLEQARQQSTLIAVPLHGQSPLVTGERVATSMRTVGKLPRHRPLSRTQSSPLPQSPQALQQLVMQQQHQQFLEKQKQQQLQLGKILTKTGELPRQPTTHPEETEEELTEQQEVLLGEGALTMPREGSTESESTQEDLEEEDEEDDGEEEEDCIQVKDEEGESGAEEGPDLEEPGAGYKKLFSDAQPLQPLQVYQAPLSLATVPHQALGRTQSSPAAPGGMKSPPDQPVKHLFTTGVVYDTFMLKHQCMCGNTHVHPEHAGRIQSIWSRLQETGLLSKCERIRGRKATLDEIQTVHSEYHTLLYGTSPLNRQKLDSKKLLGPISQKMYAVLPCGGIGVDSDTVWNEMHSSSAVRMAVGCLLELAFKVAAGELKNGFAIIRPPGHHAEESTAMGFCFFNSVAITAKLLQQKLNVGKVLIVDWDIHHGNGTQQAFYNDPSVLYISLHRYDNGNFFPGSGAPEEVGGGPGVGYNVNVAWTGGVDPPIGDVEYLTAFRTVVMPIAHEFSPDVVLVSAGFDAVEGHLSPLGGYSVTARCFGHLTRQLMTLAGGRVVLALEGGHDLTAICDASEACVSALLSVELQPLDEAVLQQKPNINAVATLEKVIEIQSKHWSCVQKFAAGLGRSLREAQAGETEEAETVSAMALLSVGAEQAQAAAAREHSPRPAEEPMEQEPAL

[1] = biological target: Protein deacetylase HDAC6 (Homo sapiens, UniProt Q9UBN7); assay: Inhibition of human HDAC6 incubated for 10 mins followed by fluorogenic substrate addition by fluorescence based analysis
Sequence of Protein deacetylase HDAC6 (Q9UBN7 whole entry): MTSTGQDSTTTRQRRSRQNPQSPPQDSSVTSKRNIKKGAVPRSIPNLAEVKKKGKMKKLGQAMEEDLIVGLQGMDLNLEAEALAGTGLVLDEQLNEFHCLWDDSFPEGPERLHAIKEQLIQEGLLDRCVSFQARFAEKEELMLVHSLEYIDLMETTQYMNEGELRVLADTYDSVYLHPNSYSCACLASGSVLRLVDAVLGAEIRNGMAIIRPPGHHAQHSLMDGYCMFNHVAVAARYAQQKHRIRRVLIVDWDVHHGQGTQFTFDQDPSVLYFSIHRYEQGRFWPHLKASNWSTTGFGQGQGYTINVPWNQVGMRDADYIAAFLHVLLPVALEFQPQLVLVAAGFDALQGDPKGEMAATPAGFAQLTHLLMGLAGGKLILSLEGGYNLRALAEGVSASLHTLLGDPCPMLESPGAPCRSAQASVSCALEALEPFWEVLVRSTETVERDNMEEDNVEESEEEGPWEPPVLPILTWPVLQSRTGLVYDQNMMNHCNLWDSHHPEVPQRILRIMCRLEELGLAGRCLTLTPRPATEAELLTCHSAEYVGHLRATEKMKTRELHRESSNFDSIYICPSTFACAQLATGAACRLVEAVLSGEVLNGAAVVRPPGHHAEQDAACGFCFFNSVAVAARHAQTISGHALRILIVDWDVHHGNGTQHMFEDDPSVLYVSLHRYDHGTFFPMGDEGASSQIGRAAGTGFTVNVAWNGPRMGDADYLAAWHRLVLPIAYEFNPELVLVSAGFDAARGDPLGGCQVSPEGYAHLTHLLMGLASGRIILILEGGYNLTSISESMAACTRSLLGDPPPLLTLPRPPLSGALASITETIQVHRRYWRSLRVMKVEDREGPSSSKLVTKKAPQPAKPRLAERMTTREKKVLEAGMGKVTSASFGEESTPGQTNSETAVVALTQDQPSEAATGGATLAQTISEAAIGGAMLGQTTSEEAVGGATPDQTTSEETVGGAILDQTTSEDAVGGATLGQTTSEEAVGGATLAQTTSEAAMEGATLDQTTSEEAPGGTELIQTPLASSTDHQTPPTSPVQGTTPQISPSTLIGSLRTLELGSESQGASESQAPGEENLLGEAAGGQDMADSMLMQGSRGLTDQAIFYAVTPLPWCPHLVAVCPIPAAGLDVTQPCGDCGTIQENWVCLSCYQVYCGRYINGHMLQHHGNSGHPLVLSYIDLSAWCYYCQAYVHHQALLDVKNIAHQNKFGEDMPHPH

Histone deacetylase 7 = Histone deacetylase 7 (Homo sapiens, UniProt Q8WUI4); assay: Inhibition of human HDAC7 incubated for 10 mins followed by fluorogenic substrate addition by fluorescence based analysis
Histone deacetylase 8 = Histone deacetylase 8 (Homo sapiens, UniProt Q9BY41); assay: Inhibition of human HDAC8 incubated for 10 mins followed by fluorogenic substrate addition by fluorescence based analysis
Sequence of Histone deacetylase 8 (Q9BY41 whole entry): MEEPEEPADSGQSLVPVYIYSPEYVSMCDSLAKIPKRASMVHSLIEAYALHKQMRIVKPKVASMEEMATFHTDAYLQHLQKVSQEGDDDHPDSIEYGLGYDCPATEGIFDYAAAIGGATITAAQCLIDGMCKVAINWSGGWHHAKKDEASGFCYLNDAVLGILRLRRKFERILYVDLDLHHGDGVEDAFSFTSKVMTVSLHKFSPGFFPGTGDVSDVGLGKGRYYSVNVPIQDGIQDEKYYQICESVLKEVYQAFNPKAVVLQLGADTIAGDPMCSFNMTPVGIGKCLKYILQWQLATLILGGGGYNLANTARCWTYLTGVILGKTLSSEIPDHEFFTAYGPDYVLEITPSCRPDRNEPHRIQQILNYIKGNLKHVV

Histone deacetylase 9 = Histone deacetylase 9 (Homo sapiens, UniProt Q9UKV0); assay: Inhibition of human HDAC9 incubated for 10 mins followed by fluorogenic substrate addition by fluorescence based analysis
[2] = biological target: Polyamine deacetylase HDAC10 (Homo sapiens, UniProt Q969S8); assay: Inhibition of human HDAC10 incubated for 10 mins followed by fluorogenic substrate addition by fluorescence based analysis
Sequence of Polyamine deacetylase HDAC10 (Q969S8 whole entry): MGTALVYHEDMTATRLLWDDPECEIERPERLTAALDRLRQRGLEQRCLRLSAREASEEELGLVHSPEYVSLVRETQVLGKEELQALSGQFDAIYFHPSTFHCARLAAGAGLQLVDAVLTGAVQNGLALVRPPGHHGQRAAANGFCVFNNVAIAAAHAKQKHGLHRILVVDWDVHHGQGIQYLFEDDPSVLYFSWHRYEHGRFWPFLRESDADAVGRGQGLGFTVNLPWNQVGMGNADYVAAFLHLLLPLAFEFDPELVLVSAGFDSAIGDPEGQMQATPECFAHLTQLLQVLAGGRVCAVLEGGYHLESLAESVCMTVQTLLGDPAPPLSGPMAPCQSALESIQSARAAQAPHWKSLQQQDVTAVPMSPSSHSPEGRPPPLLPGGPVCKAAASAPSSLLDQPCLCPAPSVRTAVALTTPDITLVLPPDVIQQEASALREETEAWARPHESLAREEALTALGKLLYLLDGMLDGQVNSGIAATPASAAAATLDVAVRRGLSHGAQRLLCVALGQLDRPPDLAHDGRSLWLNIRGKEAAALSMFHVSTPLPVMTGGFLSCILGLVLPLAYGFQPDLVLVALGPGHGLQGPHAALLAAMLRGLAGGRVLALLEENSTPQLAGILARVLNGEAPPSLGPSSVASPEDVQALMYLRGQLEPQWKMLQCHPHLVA

Histone deacetylase 11 = Histone deacetylase 11 (Homo sapiens, UniProt Q96DB2); assay: Inhibition of human HDAC11 incubated for 10 mins followed by fluorogenic substrate addition by fluorescence based analysis
Sequence of Histone deacetylase 11 (Q96DB2 whole entry): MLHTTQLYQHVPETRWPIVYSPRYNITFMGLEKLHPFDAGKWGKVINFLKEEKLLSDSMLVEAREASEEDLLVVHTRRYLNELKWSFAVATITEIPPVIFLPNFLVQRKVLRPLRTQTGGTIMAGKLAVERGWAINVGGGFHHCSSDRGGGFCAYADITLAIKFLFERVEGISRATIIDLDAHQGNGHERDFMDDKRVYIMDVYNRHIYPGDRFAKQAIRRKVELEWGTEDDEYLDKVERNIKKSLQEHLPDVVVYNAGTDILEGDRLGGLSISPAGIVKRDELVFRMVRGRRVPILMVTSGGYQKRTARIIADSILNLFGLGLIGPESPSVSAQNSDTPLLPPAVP

DU-145 [3] = assay: Inhibition of colony formation in human DU-145 cells assessed as suppression of colony formation at 3.2 uM measured after […] by crystal violet staining based analysis relative to control; assay type: functional
DU-145 [4] = assay: Inhibition of cell migration in human DU-145 cells assessed as suppression of wound closure incubated for 12 hrs by wound healing assay; assay type: functional, cell-based; conditions: dose 0.2-1.6 µM
DU-145 [5] = assay: Induction of cell cycle arrest in human DU-145 cells assessed as increase in accumulation of cells at G2/M phase incubated for 24 hrs by PI staining based flow cytometry analysis; assay type: functional; conditions: dose 0.4-3.2 µM
DU-145 [6] = assay: Induction of apoptosis in human DU-145 cells measured after 72 hrs by annexin V-FITC and PI staining based flow cytometry analysis; assay type: functional, cell-based; conditions: dose 0.4-1.6 µM
DU-145 [7] = assay: Induction of apoptosis in human DU-145 cells assessed as apoptotic rate at 0.8 uM measured after 72 hrs by annexin V-FITC and PI staining based flow cytometry analysis (reference value: 3.41%); assay type: functional
DU-145 [8] = assay: Induction of apoptosis in human DU-145 cells assessed as apoptotic rate at 1.6 uM measured after 72 hrs by annexin V-FITC and PI staining based flow cytometry analysis relative to control; assay type: functional
DU-145 [9] = assay: Upregulation of histone H3 level in human DU-145 cells incubated for 24 hrs by Western blot analysis; assay type: functional, cell-based; conditions: dose 0.8-3.2 µM
DU-145 [10] = assay: Downregulation of HDAC6 expression in human DU-145 cells at 0.8 uM incubated for 24 hrs by Western blot analysis; assay type: functional, cell-based
[11] = AUC (0 to infinity) in Sprague-Dawley rat at 2 mg/kg, iv measured upto 24 hrs by LC-MS/MS analysis; assay type: ADME, organism-based; conditions: in vivo
[12] = Half life in Sprague-Dawley rat at 2 mg/kg, iv measured upto 24 hrs by LC-MS/MS analysis; assay type: ADME, organism-based; conditions: in vivo
[13] = Clearance in Sprague-Dawley rat at 2 mg/kg, iv measured upto 24 hrs by LC-MS/MS analysis; assay type: ADME, organism-based; conditions: in vivo
[14] = Cmax in Sprague-Dawley rat at 2 mg/kg, iv measured upto 24 hrs by LC-MS/MS analysis; assay type: ADME, organism-based; conditions: in vivo
[15] = AUC (0 to infinity) in Sprague-Dawley rat at 10 mg/kg, po measured upto 24 hrs by LC-MS/MS analysis; assay type: ADME, organism-based; conditions: in vivo
[16] = Half life in Sprague-Dawley rat at 10 mg/kg, po measured upto 24 hrs by LC-MS/MS analysis; assay type: ADME, organism-based; conditions: in vivo
[17] = Cmax in Sprague-Dawley rat at 10 mg/kg, po measured upto 24 hrs by LC-MS/MS analysis; assay type: ADME, organism-based; conditions: in vivo
[18] = Acute toxicity in female Sprague-Dawley rat assessed as effect on body weight at 500 to 4500 mg/kg, po measured every 3 days for 15 days; assay type: organism-based; conditions: in vivo, 360 h, dose 500-4500 mg/kg, time 15 day
[19] = Acute toxicity in Sprague-Dawley rat assessed as effect on heart at 500 to 4500 mg/kg, po measured after 15 days; assay type: organism-based; conditions: in vivo, 360 h, dose 500-4500 mg/kg, time 15 day
[20] = Acute toxicity in Sprague-Dawley rat assessed as effect on liver at 500 to 4500 mg/kg, po measured after 15 days; assay type: organism-based; conditions: in vivo, 360 h, dose 500-4500 mg/kg, time 15 day
[21] = Acute toxicity in Sprague-Dawley rat assessed as effect on lung at 500 to 4500 mg/kg, po measured after 15 days; assay type: organism-based; conditions: in vivo, 360 h, dose 500-4500 mg/kg, time 15 day
[22] = Acute toxicity in Sprague-Dawley rat assessed as effect on kidney at 500 to 4500 mg/kg, po measured after 15 days; assay type: organism-based; conditions: in vivo, 360 h, dose 500-4500 mg/kg, time 15 day
[23] = Acute toxicity in Sprague-Dawley rat assessed as pathological lesions at 500 to 4500 mg/kg, po measured after 15 days by H and E staining based analysis; assay type: organism-based; conditions: in vivo, 360 h, dose 500-4500 mg/kg, time 15 day
[24] = Toxicity in Balb/c mouse assessed as effect on body weight at 100 to 200 mg/kg, po measured upto 40 days; assay type: organism-based; conditions: in vivo, 960 h, dose 100-200 mg/kg, time < 40 day
[25] = Toxicity in Balb/c mouse assessed as effect on body weight at 100 mg/kg, po measured upto 40 days in presence of docetaxel; assay type: organism-based; conditions: in vivo, 960 h, time < 40 day
DU-145 [26] = assay: Antitumor activity against human DU-145 cells xenografted in Balb/c nude mouse model assessed as tumor growth inhibition at 200 mg/kg, po administered once daily for 40 days in presence of docetaxel relative to control; assay type: functional; conditions: DU-145, 960 h, time 40 day, read-out: TGI
DU-145 [27] = assay: Antitumor activity against human DU-145 cells xenografted in Balb/c nude mouse model assessed as tumor growth inhibition at 100 mg/kg, po administered once daily for 40 days in presence of docetaxel relative to control; assay type: functional; conditions: DU-145, 960 h, time 40 day, read-out: TGI

COc1ccccc1/C=C1\CC(=O)N(CCCCCCC(=O)NO)C1=O
IC50 (PC-3): 720 nM
IC50 (NCI-H446): 650 nM
IC50 (NCI-H1650): 3560 nM
IC50 (MCF7): 350 nM
IC50 (HCT-116): 470 nM
IC50 (HT-29): 1050 nM
IC50 (Histone deacetylase 2): 14.1 nM
IC50 (Histone deacetylase 3): 20 nM
IC50 (Histone deacetylase 5): > 5000 nM
IC50 [1]: 3 nM
IC50 (Histone deacetylase 7): > 5000 nM
IC50 (Histone deacetylase 8): 566 nM
IC50 (Histone deacetylase 9): > 5000 nM
IC50 [2]: 72 nM
IC50 (Histone deacetylase 11): > 5000 nM
inhibition at 3.2 µM (DU-145 [3]): 100%
inhibition (DU-145 [4]): Dose-Dependent Effect
Activity (DU-145 [5]): Dose-Dependent Effect
Activity (DU-145 [6]): Dose-Dependent Effect
Activity (DU-145 [7]): 27.45%
Activity (DU-145 [8]): 59.87%
Activity (DU-145 [9]): Dose-Dependent Effect
Activity (DU-145 [10]): Active
AUC(0-inf) [11]: 1630 ng·h/mL
half-life [12]: 3.12 h
clearance [13]: 26.2 mL/min/kg
Cmax [14]: 852 ng/mL
AUC(0-inf) [15]: 3800 ng·h/mL
half-life [16]: 2.87 h
Cmax [17]: 774 ng/mL
Activity [18]: Non-Toxic
Activity [19]: Non-Toxic
Activity [20]: Non-Toxic
Activity [21]: Non-Toxic
Activity [22]: Non-Toxic
Activity [23]: Non-Toxic
Activity [24]: Non-Toxic
Activity [25]: Non-Toxic
inhibition in vivo at 200 mg/kg (DU-145 [26]): 81.3%
inhibition in vivo at 100 mg/kg (DU-145 [27]): 71.4%
